Experiment [1] deals with human skeletal muscle myocytes. The experiment can be described thus: Gene expression modulation in skeletal muscle human myocytes (RTqPCR contractility gene panel). The format is cell-based. The conditions noted are these: vs basal control. As to the method:
Said peptides were tested to evaluate their capacity to modulate the expression of several genes related with muscle contraction and relaxation in human skeletal muscle myocytes (Lodish H, Berk A, Zipursky S L, et al. (2000), Molecular Cell Biology, 4th edition; Section 18.3 Myosin: The Actin Motor Protein, Nueva York, W. H. Freeman; Kuo, I Y, & Ehrlich, B E (2015), Signaling in Muscle Contraction, Cold Spring Harbor Perspectives in Biology, 7(2); RAPSN receptor associated protein of the synapse [Homo sapiens (human)], Gene ID in NCBI 5913; Blake D J, Tinsley J M, Davies K E (1996), Utrophin: a structural and functional comparison to dystrophin, Brain Pathol., 6(1):37-47; Barik A, Lu Y, Sathyamurthy A, et.al. (2014), LRP4Is Critical for Neuromuscular Junction Maintenance, The Journal of Neuroscience, 34(42), 13892-13905; Kim N, Stiegler A L, Cameron T O, Hallock P T, et.al. (2008), Lrp4 is a Receptor for Agrin and Forms a Complex with MuSK, Cell, 135(2), 334-342; Mahavadi S, Nalli A, Kumar D, et.al. (2014), Increased expression of caveolin-1 is associated with upregulation of the RhoA/Rho kinase pathway and smooth muscle contraction in diabetes (1110.11), The FASEB Journal, 28:1_supplement)). To that end, a contractility smart data gene panel was designed. Said contractility smart data gene panel analyses the expression of the genes related with muscular contraction and relaxation included in table 5.
Briefly, human skeletal muscle myoblasts were seeded in duplicate in 12-well culture plates at a density of 1×10^5 cells/well and maintained at standard culture conditions (37° C., 95% humidity, 5% CO2) for 48-72h. Myoblast differentiation to myocyte was then induced with specific differentiation media (SKM-D medium+1% Antibiotic-Antimycotic) and monitored for 7 more days. Differentiated cells were treated with 0.05 mg/mL of peptide Ac-SEQ ID NO: 5-NH2; or with 0.1 mg/mL of peptide Ac-SEQ ID NO: 10-NH2 for 24 hours; or with 0.05 and 0.5 mg/mL of peptide Ac-SEQ ID NO: 8-NH2 for 6h; or with 0.5 mg/mL of peptide Ac-SEQ ID NO: 8-NH2 for 24 h. Untreated cells were used as basal control. Cells were then lysed for RNA extraction with a RNA purification commercial kit following manufacturer instructions (RNeasy mini kit, Qiagen, Netherlands). RNA was then quantified by nanodrop, adjusted in concentration and processed for retrotranscription to cDNA using a commercially available kit (High-Capacity cDNA Reverse Transcription kit, Thermofisher Scientific, USA). Resulting cDNA was used to perform a RTqPCR (Real Time Quantitative Polymerase Chain Reaction) using taqman technology and a panel of probes designed to target the specific genes related to muscle contractility mentioned in table 4.

The next experiment has as its system LAN cells. Put plainly: Measurement of acetylcholine release in differentiated LAN cells stimulated with 50 mM KCl. To be noted: 1 hour treatment, 0.001, 0.005 and 0.01 mg/mL (Ac-SEQ ID NO: 8-NH2: 0.005 and 0.05 mg/mL). The format is cell-based. As to the method: Said peptides were tested for their ability to modulate acetylcholine release in vitro. To that end, LAN cells were seeded on 48-well culture plates and allowed to reach the appropriate confluence under controlled conditions (37° C., 5% CO2) before inducing differentiation by replacing the culture media with Neurobasal® A media, supplemented with N-2 Supplement, GlutaMAX™, choline chloride and Leukemia Inhibition factor (GIBCO, Life technologies, MA, USA). Once the cells acquired its differentiated morphology, they were treated with the peptides mentioned above at the following concentrations for 1 hour: all peptides, except Ac-SEQ ID NO: 8-NH2, at 0.001 mg/mL, 0.005 mg/mL and 0.01 mg/mL; and peptide Ac-SEQ ID NO: 8-NH2 at 0.005 mg/mL and 0.05 mg/mL. Cells were then washed with HEPES, before stimulation of acetylcholine release by depolarization with external 50 mM KCl solution. Non-stimulated cells were incubated with non-depolarizing 4 mM KCl solution. After 30 minutes of incubation with the corresponding depolarizing or non-depolarizing KCl solution, cell supernatants were collected and used to measure acetylcholine levels with Amplex Red Acetylcholine Assay Kit (ThermoFisher Scientific, MA, USA). Cell pellets were used to determine protein content by BCA Protein Test Assay (Pierce BCA Protein Assay kit, ThermoFisher Scientific, MA, USA) (for data normalization purposes).
Percentage of acetylcholine release inhibition was calculated considering 100% release for the positive control (non-treated stimulated with KCl cells).

Consider “Ac-His-Ala-Leu-Arg-Phe-Trp-NH2 [Ac-SEQ ID NO: 8-NH2]”, for which, in experiment [1] (0.05 mg/mL, 6 hours), the CACNB1 gene expression entry was “downregulation”, the LRP4 gene expression entry is “downregulation”, the MYH1 gene expression entry was “downregulation” and the UTRN gene expression result is reported as “downregulation”. Also, in experiment [1] (0.5 mg/mL, 6 hours), the ACTA1 gene expression entry is recorded as “downregulation”, the CALM3 gene expression result is “downregulation”, the CAV1 gene expression entry was “downregulation” and the SCN3A gene expression result was “downregulation”. For the same substance, the TNNC1 gene expression entry in experiment [1] (0.5 mg/mL, 6 hours) is “downregulation”. For the same substance, in experiment [1] (0.5 mg/mL, 24 hours), the ATP2A gene expression entry is “upregulation” and the RAPSN gene expression entry is “downregulation”. The “Result: modulation of acetylcholine release” value in the experiment with LAN cells was “Active in the modulation of”.

Values taken from US11634458B2, “Peptides and compositions for use in cosmetics and medicine” (LIPOTRUE, S.L., priority 2018, dated 2023).
